Numbered stars: 1 amine (or outer) side, 2 acyl side, 3 side chain; on linkers, the order of the positions; unused ones are H or OH. Bridge positions count the residues as written; N and C are the ends. Square brackets hold non-standard residues; d marks the D form. Peptide text beside a SMILES is read from it. Trp(βS-Me,7-OMe) = COc1cccc2c([C@H](C)[C@H](N)C(=O)O)c[nH]c12; Phe(3R-OH) = O=C([C@@H](N[*:1])[C@H](O[*:3])c1ccccc1)[*:2]; Achc(cis-1,4) = O=C([C@H]1CC[C@@H](N[*:1])CC1)[*:2]; Trp(7-Cl) = N[C@@H](Cc1c[nH]c2c(Cl)cccc12)C(=O)O; Phe(4-CONH2) = NC(=O)c1ccc(C[C@H](N)C(=O)O)cc1; Phe(4-COOH) = N[C@@H](Cc1ccc(C(=O)O)cc1)C(=O)O; Trp(7-aza) = N[C@@H](Cc1c[nH]c2ncccc12)C(=O)O; Phe(4-CH2NH2) = NCc1ccc(C[C@H](N)C(=O)O)cc1; Ala(4-thiazolyl) = N[C@@H](Cc1cscn1)C(=O)O; Pip(5R-OH) = O=C(O)[C@@H]1CC[C@@H](O)CN1; X4 = O=C([C@H]1C=C[C@@H](N[*:1])C1)[*:2]; X1 = O=C([C@@H]1CC[C@H](N[*:1])C1)[*:2]; hPhe = N[C@@H](CCc1ccccc1)C(=O)O; 4Pal = N[C@@H](Cc1ccncc1)C(=O)O; NMeE = CN[C@@H](CCC(=O)O)C(=O)O; dHyp = O=C(O)[C@H]1C[C@H](O)CN1; Cit = NC(=O)NCCC[C@H](N)C(=O)O; αMeS = C[C@](N)(CO)C(=O)O; NMeA = CN[C@@H](C)C(=O)O; Nle = CCCC[C@H](N)C(=O)O; Sar = CNCC(=O)O
Experiments:
[1] = biological target: T1, human TNFR1 extracellular domain (ECD) protein (Homo sapiens, UniProt P19438); assay: SPR binding affinity to captured human TNFR1 ECD
T1 construct: HRV 3C protease cleavage site (C); 6His (C, cleaved yes); made in house; host or cells: Sf21 insect cells (baculovirus), secreted
T1 sequence (P19438 30-211): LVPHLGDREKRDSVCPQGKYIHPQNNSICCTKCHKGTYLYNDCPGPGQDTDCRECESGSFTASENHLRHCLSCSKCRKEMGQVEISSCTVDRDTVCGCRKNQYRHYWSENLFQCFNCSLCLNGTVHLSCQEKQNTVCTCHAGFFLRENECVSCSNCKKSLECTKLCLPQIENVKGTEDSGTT
Procedure, shortened: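 Peptides are tested against captured biotin-tagged human TNFR1 ECD, with parallel TNFR2 ECD binding to check selectivity. Buffer: 10 mM HEPES pH 7.4, 150 mM NaCl, 3 mM EDTA, 0.05% P20, 2% DMSO.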

[2] = biological target: T2, human soluble TNFR1 (sTNFR1) (Homo sapiens, UniProt P19438); assay: Human sTNFR1-peptide displacement assay (LanthaScreen Eu TR-FRET binding assay)
T2 construct: made in house; host or cells: Sf21 (baculovirus)
T2 sequence (P19438 with tags, fused parts or gaps): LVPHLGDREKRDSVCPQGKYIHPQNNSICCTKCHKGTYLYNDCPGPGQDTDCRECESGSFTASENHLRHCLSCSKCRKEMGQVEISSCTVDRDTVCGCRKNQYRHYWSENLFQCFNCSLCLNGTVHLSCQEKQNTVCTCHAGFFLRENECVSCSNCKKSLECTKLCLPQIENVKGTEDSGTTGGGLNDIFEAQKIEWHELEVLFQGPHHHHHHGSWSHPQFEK
Procedure, shortened: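 Readout is the 665/615 nm TR-FRET ratio (Eu anti-His donor, streptavidin-Alexa647 acceptor), normalized to DMSO and saturating displacer, fit by Morrison-based five-parameter logistic for Kd^app. His-tagged sTNFR1 (1-211) prebound to 100 nM biotinylated peptide SEQ ID NO.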

## CCCC[C@@H]1NC(=O)[C@H]2CC[C@H](CC2)NC(=O)[C@H]([C@@H](C)c2c[nH]c3c(OC)cccc23)NC(=O)CN(C)C(=O)[C@H](Cc2ccc(O)cc2)NC(=O)[C@H](Cc2ccc(C(=O)O)cc2)NC(=O)[C@](C)(CO)NC(=O)[C@H](Cc2c[nH]c3c(Cl)cccc23)NC(=O)[C@H](Cc2ccncc2)NC(=O)[C@H](CC(N)=O)NC(=O)[C@H](CCC(=O)O)N(C)C(=O)[C@H](Cc2c[nH]c3ccccc23)NC(=O)[C@H](CO)NC(=O)[C@H](Cc2ccc(CN)cc2)NC1=O [SEQ ID NO. 244] (cyclo([4Pal][Trp(7-Cl)][αMeS][Phe(4-COOH)]Y[Sar][Trp(βS-Me,7-OMe)][Achc(cis-1,4)][Nle][Phe(4-CH2NH2)]SW[NMeE]N))
[1]
  Kd: 90 pM
[2]
  IC50: 490 pM
  Kd: 960 pM

## CCCC[C@@H]1NC(=O)[C@@H]2CC[C@@H](C2)NC(=O)[C@H]([C@@H](C)c2c[nH]c3c(OC)cccc23)NC(=O)CN(C)C(=O)[C@H](Cc2ccc(C(=O)O)cc2)NC(=O)[C@H](Cc2ccc(C(N)=O)cc2)NC(=O)[C@](C)(CO)NC(=O)[C@H](Cc2c[nH]c3c(Cl)cccc23)NC(=O)[C@H](Cc2ccc(C(=O)O)cc2)NC(=O)[C@H](CC(N)=O)NC(=O)[C@H]2C[C@H](O)CN2C(=O)[C@H](Cc2c[nH]c3ccccc23)NC(=O)[C@@H]2CC[C@@H](O)CN2C(=O)[C@H](Cc2ccncc2)NC1=O [SEQ ID NO. 247] (cyclo([4Pal][Pip(5R-OH)]W[dHyp]N[Phe(4-COOH)][Trp(7-Cl)][αMeS][Phe(4-CONH2)][Phe(4-COOH)][Sar][Trp(βS-Me,7-OMe)][X1][Nle]))
[1]
  Kd: 70 pM
[2]
  Kd: 90 pM

## C[C@H]1C(=O)N[C@@H](CC(N)=O)C(=O)N[C@@H](Cc2ccncc2)C(=O)N[C@@H](Cc2c[nH]c3ccccc23)C(=O)N[C@@](C)(CO)C(=O)N[C@@H](Cc2ccc(C(=O)O)cc2)C(=O)N[C@@H](Cc2ccc(O)cc2)C(=O)N(C)CC(=O)N[C@@H](Cc2c[nH]c3ccccc23)C(=O)N[C@@H]2C=C[C@@H](C2)C(=O)N[C@@H](CCc2ccccc2)C(=O)N[C@@H](Cc2ccncc2)C(=O)N[C@@H](CO)C(=O)N[C@@H](Cc2c[nH]c3ccccc23)C(=O)N1C [SEQ ID NO. 248] (cyclo([4Pal]SW[NMeA]N[4Pal]W[αMeS][Phe(4-COOH)]Y[Sar]W[X4][hPhe]))
[1]
  Kd: 2000 pM
[2]
  IC50: 1450 pM
  Kd: 1560 pM

## CCCC[C@@H]1NC(=O)CSC[C@@H](C(N)=O)NC(=O)[C@H]([C@@H](C)c2c[nH]c3c(OC)cccc23)NC(=O)CN(C)C(=O)[C@H](Cc2ccc(O)cc2)NC(=O)[C@H](Cc2ccc(C(=O)O)cc2)NC(=O)[C@](C)(CO)NC(=O)[C@H](Cc2c[nH]c3c(Cl)cccc23)NC(=O)[C@H](Cc2ccncc2)NC(=O)[C@H](CC(N)=O)NC(=O)[C@H](CCC(=O)O)N(C)C(=O)[C@H](Cc2c[nH]c3ncccc23)NC(=O)[C@H](Cc2cscn2)NC(=O)[C@H](Cc2ccncc2)NC1=O [SEQ ID NO. 253] ({CH2CO}-[Nle][4Pal][Ala(4-thiazolyl)][Trp(7-aza)][NMeE]N[4Pal][Trp(7-Cl)][αMeS][Phe(4-COOH)]Y[Sar][Trp(βS-Me,7-OMe)]C-NH2; thioether N-14)
[1]
  Kd: 1090 pM
[2]
  IC50: 770 pM
  Kd: 1020 pM

## CN1CC(=O)N[C@@H](Cc2c[nH]c3ccccc23)C(=O)N[C@H](C(N)=O)CSCC(=O)N[C@@H](CCCCN)C(=O)N[C@@H](Cc2ccc(O)cc2)C(=O)N[C@@H](CO)C(=O)N[C@@H](Cc2c[nH]c3ccccc23)C(=O)N2CCC[C@@H]2C(=O)N[C@@H](CCCNC(N)=O)C(=O)N[C@@H](Cc2ccncc2)C(=O)N[C@@H](Cc2c[nH]c3ccccc23)C(=O)N[C@@](C)(CO)C(=O)N[C@@H](Cc2ccc(C(=O)O)cc2)C(=O)N[C@@H](Cc2ccc(O)cc2)C1=O [SEQ ID NO. 256] ({CH2CO}-KYSW[dP][Cit][4Pal]W[αMeS][Phe(4-COOH)]Y[Sar]WC-NH2; thioether N-14)
[1]
  Kd: 1400 pM
[2]
  IC50: 1840 pM

## CCCC[C@@H]1NC(=O)CSC[C@@H](C(N)=O)NC(=O)[C@H]([C@@H](C)c2c[nH]c3c(OC)cccc23)NC(=O)CN(C)C(=O)[C@H](Cc2ccc(O)cc2)NC(=O)[C@H](Cc2ccc(C(=O)O)cc2)NC(=O)[C@](C)(CO)NC(=O)[C@H](Cc2c[nH]c3c(Cl)cccc23)NC(=O)[C@H](Cc2ccncc2)NC(=O)[C@H](CC(N)=O)NC(=O)[C@H](CCC(=O)O)N(C)C(=O)[C@H](Cc2c[nH]c3ncccc23)NC(=O)[C@H](CO)NC(=O)[C@H]([C@H](O)c2ccccc2)NC1=O [SEQ ID NO. 259] ({CH2CO}-[Nle][Phe(3R-OH)]S[Trp(7-aza)][NMeE]N[4Pal][Trp(7-Cl)][αMeS][Phe(4-COOH)]Y[Sar][Trp(βS-Me,7-OMe)]C-NH2; thioether N-14)
[1]
  Kd: 150 pM
[2]
  Kd: 220 pM

From patent US20240287138A1, “CYCLIC PEPTIDES FOR INHIBITING TNF RECEPTOR 1 ACTIVITY” (Merck Sharp & Dohme LLC, priority 2023, published 2024)
